Measurements published in patent publication US6403554B2, “Polyunsaturated fatty acid derivatives and their use” (Ardenia Investments Ltd., priority 1998, dated 2002).

Assays:
Type in all cases: in vivo, C57B1/6 mice
[1] = tested on: antibody-forming cells (AFC) in the spleen; assay: Humoral immune response: counting antibody-forming cells (AFC) in the spleen according to Cunningham, mice immunised with sheep erythrocytes; settings: compound alone
[2] = tested on: hemagglutinating antibodies in serum; assay: Humoral immune response: titers of hemagglutinating antibodies in serum; settings: serum, female mice
[3] = tested on: antibody-forming cells (AFC) in the spleen; assay: Influence of AFP/compound complexes and their components on humoral immune response (AFC in spleen); settings: compound in a complex with AFP
Description: 0.15 ml of AFP/Compound 3 complex was administered intravenously to 6 mice males of C57B1/6 line (weight 18-22 g) in the dose of […] of AFP and 45.5 μg of compound 3 per capita. Simultaneously suspension of 5·10^7 sheep erythrocytes was injected intraperitoneally (0.2 ml per capita). In the group with compound 3 mice were injected intravenously by one in the dose of 45.5 μg. Animals of group with AFP received 9 μg of AFP. Mice of control group were injected intravenously with equal volume of saline. Complex AFP/Compound 3 effect on humoral immune response was analyzed by counting the quantity of AFC in the spleen according to Cunningham (per 10^6 spleen cells and per spleen).
0.15 ml of AFP/Compound 2a complex (1:100) was administered intravenously to 6 mice males of C57B1/6 line (weight 18-22 g) in the dose of 9 μg of AFP and 45.5 μg of compound 2a per capita. Simultaneously, a suspension of 5·10^7 sheep erythrocytes was injected intraperitoneally (0.2 ml per capita). In the group with compound 2a mice were injected intravenously by one in the dose of 45.5 μg. Animals of group with AFP received 9 μg of AFP. Mice in the control group were injected intravenously with an equal volume of saline. The effect of the AFP/Compound 2a complex on humoral immune response was analyzed by counting the quantity of AFC in the spleen according to Cunningham (per 10^6 spleen cells and per spleen).
(§1) 0.15 ml of AFP/Compound 10 complex (1:200) was administered intravenously to 6 male mice of C57B1/6 line (weight 18-22 g) in the dose of 9 μg of AFP and 91 μg of compound 10 per capita. Simultaneously, a suspension of 5·10^7 sheep erythrocytes was injected intraperitoneally (0.2 ml per capita). In the group receiving compound 10 mice were injected intravenously by one in the dose of 91 μg. Animals in the group with AFP received 9 μg of AFP. Micein the control group were injected intravenously with an equal volume of saline. The effect of the AFP/Compound 10 complex on humoral immune response was analyzed by counting the quantity of AFC in the spleen according to Cunningham (per 10^6 spleen cells and per spleen).
as §1, with “AFP/Compound 14” for “AFP/Compound 10”, “compound 14” for “compound 10”, “group with” for “group receiving”, “Animals of” for “Animals in the”, “AFP. Mice in” for “AFP. Micein”
0.15 ml of AFP/Compound 7 complex (1:200) was administered intravenously to 6 male mice of C57B1/6 line (weight 18-22 g) in the dose of 9 μg of AFP and 91 μg of compound 7 per capita. Simultaneously, a suspension of 5·10^7 sheep erythrocytes was injected intraperitoneally (0.2 ml per capita). In the group with compound 7 mice were injected intravenously by one in the dose of 91 μg. Animals of group with AFP received 9 μg of AFP. Mice of control group were injected intravenously with equal volume of saline. AFP/Compound 7 complex effect on humoral immune response was analyzed by counting the quantity of AFC in the spleen according to Cunningham (per 10^6 spleen cells and per spleen).
0.15 ml of AFP/Compound 15 complex (1:200) was administered intravenously to 6 mice males of C57B1/6 line (weight 18-22 g) in the dose of 9 μg of AFP and 91 μg of compound 15 per capita. Simultaneously, a suspension of 5·10^7 sheep erythrocytes was injected intraperitoneally (0.2 ml per capita). In the group receiving compound 15, the mice were injected intravenously by one in the dose of 91 μg. Animals in the AFP-group received 9 μg of AFP. […]

For `CC1=C(/C=C/C(C)=C/C=C/C(C)=C/C(=O)N[C@H](C(=O)O)[C@@H](C)OP(=O)(O)O)C(C)(C)CCC1` (relative stereo) [Compound 3, N-(all-trans-retinoyl)-o-phospho-L-threonine], the “Dose at which immunostimulating effect in vivo is displayed (micelle form)” value [1] was 91 μg/mouse, the Amount of hemagglutinins ([2]; 45.5 μg/mouse i.v.) was 6.6 ± 0.2 Log2 T and the Amount of hemagglutinins ([2]; 91 μg/mouse i.v.) was 8.0 ± 0.3 Log2 T. The Amount of hemagglutinins ([2]; 136.5 μg/mouse i.v.) was 8.7 ± 0.3 Log2 T and the “Dose at which immunostimulating effect in vivo is displayed” value [3] was 45.5 μg/mouse.
